In this experiment the test system is MCF-10A cells. As to the kind of experiment: TGF-β1 induction of Sema7A gene expression by qRT-PCR. The format is cell-based, human. To be noted: 5 ng/ml, within 18 hours, vs vehicle. The method, then:
We then wanted to establish an in vitro system to study the functional role of Sema7A in the breast epithelia. To do so, we assayed the Sema7A expression in human breast cell lines with varying degrees of malignancy using quantitative real-time PCR (qRT-PCR).
We treated MCF-10A cells with 5 ng/ml of TGF-β1 or vehicle for 18, 24 or 36 hours. MCF-10A cells were then assayed for Sema7A gene expression by qRT-PCR. […] TGF-β1 is a key inducer of epithelial to mesenchymal transition (EMT) and Sema7A could serve as a down-stream effecter of TGF-β1 in EMT.

For the substance “TGF-β1: Transforming growth factor beta-1, used to induce Sema7A expression in MCF-10A breast epithelial cells”, the “expression of Sema7A” value is listed as “significantly increased”.
